Experimental data: PubChem BioAssay (NCI)
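48-hour exposure; five concentrations; linearly interpolated endpoints. GI50 marks 50% less growth. The concentration for full growth arrest is given as TGI.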

Experiments:
Test in all cases: inhibition of tumour cell growth, NCI panel, 48 h; in the data active = GI50 below about 0.43 µM; inactive = the rest
[1] = tested on: 786-0 renal
[2] = tested on: A498 renal
[3] = tested on: A549 NSCLC
[4] = tested on: ACHN renal
[5] = tested on: BT-549 breast
[6] = tested on: CAKI-1 renal
[7] = tested on: CCRF-CEM leukemia
[8] = tested on: COLO 205 colon
[9] = tested on: DU-145 prostate
[10] = tested on: EKVX NSCLC
[11] = tested on: HCC-2998 colon
[12] = tested on: HCT-116 colon
[13] = tested on: HCT-15 colon
[14] = tested on: HL-60(TB) leukemia
[15] = tested on: HOP-62 NSCLC
[16] = tested on: HOP-92 NSCLC
[17] = tested on: HS 578T breast
[18] = tested on: HT29 colon
[19] = tested on: IGROV1 ovarian
[20] = tested on: K-562 leukemia
[21] = tested on: KM12 colon
[22] = tested on: LOX IMVI melanoma
[23] = tested on: M14 melanoma
[24] = tested on: MALME-3M melanoma
[25] = tested on: MCF7 breast
[26] = tested on: MDA-MB-231 breast
[27] = tested on: MOLT-4 leukemia
[28] = tested on: NCI-H226 lung
[29] = tested on: NCI-H23 lung
[30] = tested on: NCI-H460 lung
[31] = tested on: NCI-H522 lung
[32] = tested on: NCI/ADR-RES ovarian
[33] = tested on: OVCAR-3 ovarian
[34] = tested on: OVCAR-4 ovarian
[35] = tested on: OVCAR-5 ovarian
[36] = tested on: OVCAR-8 ovarian
[37] = tested on: PC-3 prostate
[38] = tested on: RPMI-8226 leukemia
[39] = tested on: RXF 393 renal
[40] = tested on: SF-268 CNS
[41] = tested on: SF-295 CNS
[42] = tested on: SF-539 CNS
[43] = tested on: SK-MEL-2 melanoma
[44] = tested on: SK-MEL-28 melanoma
[45] = tested on: SK-MEL-5 melanoma
[46] = tested on: SK-OV-3 ovarian
[47] = tested on: SN12C renal
[48] = tested on: SNB-19 CNS
[49] = tested on: SNB-75 CNS
[50] = tested on: SR leukemia
[51] = tested on: SW-620 colon
[52] = tested on: T-47D breast
[53] = tested on: TK-10 renal
[54] = tested on: U251 CNS
[55] = tested on: UACC-257 melanoma
[56] = tested on: UACC-62 melanoma
[57] = tested on: UO-31 renal
[58] = tested on: MDA-MB-435

Cc1nc2sc(C(=O)Nc3cccc4ccccc34)c(N)c2cc1C(C)O (stereo unspecified)
9.91 µM: TGI [30]
inactive: GI50 [10] 0.446 µM | GI50 [11] 0.647 µM | GI50 [16] 1.03 µM | GI50 [26] 0.751 µM | GI50 [34] 1.51 µM | GI50 [35] 1.5 µM | GI50 [44] 0.882 µM | GI50 [53] 32.2 µM | GI50 [55] > 50 µM
5.81 µM: TGI [45]
> 50 µM: TGI [1] | TGI [3] | TGI [4] | TGI [6] | TGI [7] | TGI [9] | TGI [10] | TGI [11] | TGI [12] | TGI [13] | TGI [15] | TGI [17] | TGI [19] | TGI [20] | TGI [21] | TGI [22] | TGI [23] | TGI [24] | TGI [25] | TGI [26] | TGI [27] | TGI [28] | TGI [29] | TGI [34] | TGI [35] | TGI [36] | TGI [37] | TGI [38] | TGI [39] | TGI [40] | TGI [41] | TGI [43] | TGI [44] | TGI [46] | TGI [47] | TGI [48] | TGI [49] | TGI [50] | TGI [51] | TGI [52] | TGI [53] | TGI [54] | TGI [55] | TGI [56]
> 48.3 µM: TGI [57]
> 22.4 µM: TGI [31]
14.9 µM: TGI [18]
> 13.8 µM: TGI [5]
0.968 µM: TGI [42]
7.64 µM: TGI [8]
active: GI50 [1] 0.227 µM | GI50 [2] 0.0756 µM | GI50 [3] 0.345 µM | GI50 [4] 0.284 µM | GI50 [5] 0.264 µM | GI50 [6] 0.192 µM | GI50 [7] 0.21 µM | GI50 [8] 0.234 µM | GI50 [9] 0.247 µM | GI50 [12] 0.233 µM | GI50 [13] 0.189 µM | GI50 [14] 0.124 µM | GI50 [15] 0.244 µM | GI50 [17] 0.121 µM | GI50 [18] 0.191 µM | GI50 [19] 0.308 µM | GI50 [20] 0.157 µM | GI50 [21] 0.199 µM | GI50 [22] 0.264 µM | GI50 [23] 0.176 µM | GI50 [24] 0.265 µM | GI50 [25] 0.17 µM | GI50 [27] 0.227 µM | GI50 [28] 0.28 µM | GI50 [29] 0.394 µM | GI50 [30] 0.184 µM | GI50 [31] 0.207 µM | GI50 [32] 0.17 µM | GI50 [33] 0.155 µM | GI50 [36] 0.368 µM | GI50 [37] 0.285 µM | GI50 [38] 0.223 µM | GI50 [39] 0.151 µM | GI50 [40] 0.367 µM | GI50 [41] 0.171 µM | GI50 [42] 0.155 µM | GI50 [43] 0.219 µM | GI50 [45] 0.185 µM | GI50 [46] 0.196 µM | GI50 [47] 0.425 µM | GI50 [48] 0.244 µM | GI50 [49] 0.119 µM | GI50 [50] 0.15 µM | GI50 [51] 0.175 µM | GI50 [52] 0.183 µM | GI50 [54] 0.227 µM | GI50 [56] 0.243 µM | GI50 [57] 0.268 µM
0.355 µM: TGI [14]
1.02 µM: TGI [2]
> 47 µM: TGI [16]

COC(=O)[C@]1(C)CCCn2c(=O)n(-c3ccccc3)c(=O)n21
> 100 µM: TGI [1] | TGI [2] | TGI [3] | TGI [4] | TGI [5] | TGI [6] | TGI [7] | TGI [8] | TGI [9] | TGI [10] | TGI [11] | TGI [12] | TGI [13] | TGI [15] | TGI [16] | TGI [17] | TGI [18] | TGI [19] | TGI [20] | TGI [21] | TGI [22] | TGI [23] | TGI [25] | TGI [26] | TGI [58] | TGI [27] | TGI [28] | TGI [29] | TGI [31] | TGI [32] | TGI [33] | TGI [34] | TGI [35] | TGI [36] | TGI [37] | TGI [38] | TGI [39] | TGI [40] | TGI [41] | TGI [42] | TGI [43] | TGI [44] | TGI [45] | TGI [46] | TGI [47] | TGI [48] | TGI [49] | TGI [51] | TGI [52] | TGI [53] | TGI [54] | TGI [55] | TGI [56] | TGI [57]

CN(CCNC(=O)c1[nH]nc2c1ccc1ccccc12)CCNC(=O)c1[nH]nc2c1ccc1ccccc12
30.1 µM: TGI [46]
6.8 µM: TGI [37]
53.2 µM: TGI [5]
5.11 µM: TGI [30]
46.5 µM: TGI [28]
18.5 µM: TGI [16]
29.1 µM: TGI [57]
> 100 µM: TGI [32]
5 µM: TGI [7]
5.03 µM: TGI [52]
3.61 µM: TGI [11]
3.9 µM: TGI [31]
5.95 µM: TGI [14]
3.27 µM: TGI [18]
> 76.2 µM: TGI [6]
3.24 µM: TGI [45]
3.49 µM: TGI [23]
5.3 µM: TGI [21]
37.9 µM: TGI [43]
3.71 µM: TGI [35]
10.2 µM: TGI [9]
6.26 µM: TGI [33]
4.09 µM: TGI [29]
2.74 µM: TGI [8]
56.7 µM: TGI [55]
67.7 µM: TGI [2]
3.33 µM: TGI [22]
3.29 µM: TGI [25]
4.84 µM: TGI [40]
46.7 µM: TGI [13]
